Experimental data reported in patent US6964959B2, “Use of a methylol-containing compound to treat tumors” (Carter Wallace, Inc., priority 1999, dated 2005).

Tests used:
human cancer cell lines = assay: Cytotoxic activity of taurultam in human cancer cell lines; type: cell-based
Protocol: The cytotoxic activity of taurultam was evaluated in vitro using the same human cancer cell lines as described above. […] The data also indicate that the cytotoxic effect is directly proportionate to the number of methylol molecules liberated per molecule of methylol-containing compound

[1] = system: MDR-transfected glioblastoma cells; assay: Cytotoxicity in MDR-transfected glioblastoma cells; conditions: transfected vs untransfected glioblastoma cells
From the text: The neoplastic cell lines used in the survey were standard tumor cell lines, e.g., PA1 human ovarian cell line, SKOV3 human ovarian cell line, HT29 human colon tumor cell line, DU145 human prostate tumor cell line, U251 human glioblastoma cell line, U251-MDR human glioblastoma cell line transfected with DNA encoding MDR, T98G human glioblastoma cell line, SP-1 human leukemia cell line, and Daudi human leukemia cell line.
Glioblastoma cells were transfected with a gene encoding multiple drug resistance (MDR).

Row | Compound | induction of apoptotic death (human cancer cell lines; cancer cells vs normal control cells) | cytotoxic activity relative to the activity observed with taurolidine (human cancer cell lines; same human cancer cell lines as for taurolidine) | resistance of MDR-transfected cells [1]
1 | O=S1(=O)CCNCN1 [taurultam] | induced apoptotic death of cancer cells but not normal control cells | approximately 75% | –
2 | COc1cccc2c1C(=O)c1c(O)c3c(c(O)c1C2=O)C[C@@](O)(C(=O)CO)C[C@@H]3O[C@H]1C[C@H](N)[C@H](O)[C@H](C)O1 [adriamycin] | – | – | 100-1000 times
